Data taken from article PMC5196235 (International Journal for Parasitology: Drugs and Drug …, 2016).
Where a name gives a salt, the structure may show the parent alone.

molecular target: T1, Asu-ACR-16 receptor (Ascaris suum, UniProt F1KYJ9); test: Two-electrode voltage clamp of Asu-ACR-16 expressed in Xenopus oocytes; assay type: cell-based; details: 30 μM 5-methylnicotine, 100 μM 6-methylnicotine, 300 μM homonicotine, 100 μM (S, R)-anabasine
T1 sequence (F1KYJ9 1-504): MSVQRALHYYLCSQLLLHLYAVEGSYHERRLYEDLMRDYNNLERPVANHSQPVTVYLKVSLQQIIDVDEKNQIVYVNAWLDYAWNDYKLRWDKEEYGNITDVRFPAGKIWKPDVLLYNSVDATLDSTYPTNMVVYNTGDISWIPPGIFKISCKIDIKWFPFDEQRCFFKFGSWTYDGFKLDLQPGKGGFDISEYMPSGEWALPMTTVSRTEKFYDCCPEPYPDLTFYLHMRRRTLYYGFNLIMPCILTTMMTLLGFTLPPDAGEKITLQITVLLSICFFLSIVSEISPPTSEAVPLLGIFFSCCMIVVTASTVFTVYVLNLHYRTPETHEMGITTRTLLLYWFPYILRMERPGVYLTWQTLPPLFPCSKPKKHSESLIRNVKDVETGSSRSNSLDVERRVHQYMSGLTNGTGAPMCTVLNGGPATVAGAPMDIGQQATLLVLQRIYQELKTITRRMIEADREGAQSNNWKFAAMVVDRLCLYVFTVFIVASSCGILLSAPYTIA

Compound | effect at high concentration (response left out of the Hill fit)
Cc1cncc(C2CCCN2C)c1 (racemic) [5-methylnicotine, rac-5-methylnicotine] | inhibitory effects at high concentrations
anabasine [(S, R)-anabasine] | inhibitory effect

same assay, conditions: Asu-ACR-16 in Xenopus oocytes, Hill equation fit, mean ± S.E.M., N = 5

Compound | Hill slope (nH)
CC(=O)OCC[N+](C)(C)C [ACh, acetylcholine] | 2.93 ± 0.13
(±)-nornicotine | 3.25 ± 0.49
Cc1cncc(C2CCCN2C)c1 (racemic) [5-methylnicotine, rac-5-methylnicotine] | 2.09 ± 0.14
CN1CCC[C@H]1c1cncc(Br)c1 [(S)-5-bromonicotine] | 2.46 ± 0.21
CN1CCCC1c1ccc(N)nc1.Cl.Cl (stereo not drawn) [6-AN, 5-(1-methyl-pyrrolidin-2-yl)-pyridin-2-ylamine dihydrochloride] | 10.10 ± 0.15
C#Cc1cncc([C@@H]2CCCN2C)c1 [(S)—SIB 1508Y] | 0.94 ± 0.04
CN1CCC[C@H]1c1cccnc1 [(S)-nicotine, (−)-nicotine hydrogen tartrate salt] | 3.39 ± 0.36

same assay, conditions: derivatives that elicited inward currents at 100 μM were classed as agonists

Compound | agonist activity on Asu-ACR-16 (inward current)
CN1CCCC1c1ccc(N)nc1.Cl.Cl (stereo not drawn) [6-AN, 5-(1-methyl-pyrrolidin-2-yl)-pyridin-2-ylamine dihydrochloride] | little agonist activity

same assay, conditions: read-out: maximum response (Imax)

Compound | Emax [%]
CN1CCCC1c1ccc(N)nc1.Cl.Cl (stereo not drawn) [6-AN, 5-(1-methyl-pyrrolidin-2-yl)-pyridin-2-ylamine dihydrochloride] | 6.29 ± 0.62
C#Cc1cncc([C@@H]2CCCN2C)c1 [(S)—SIB 1508Y] | 100 ± 4.36

molecular target: T1, Asu-ACR-16 receptor; test: not given; details: ref Abongwa et al., 2016; cited from earlier work

Compound | sensitivity of the Asu-ACR-16 receptor to the agonist
CC(=O)OCC[N+](C)(C)C [ACh, acetylcholine] | sensitive
O=c1cccc2n1C[C@@H]1CNC[C@H]2C1 [cytisine] | sensitive
C[N+]1(C)CCN(c2ccccc2)CC1.[I-] [DMPP, dimethyl-4-phenyllpiperazinium iodide] | sensitive
O=c1c(Br)ccc2n1C[C@@H]1CNC[C@H]2C1 [3-bromocytisine] | sensitive
Clc1ccc(C2CC3CCC2N3)cn1 (stereo not drawn) [epibatidine] | sensitive
CN1CCC[C@H]1c1cccnc1 [(S)-nicotine, (−)-nicotine hydrogen tartrate salt] | sensitive
